Measured values: publication PMC9585589 (ACS Chemical Neuroscience, 2022)
Like-named read-outs stand apart in the source and are kept apart here.

Assays:
[1] = molecular target: human CB1; settings: one per compound, cited from earlier work
[2] = molecular target: human CB1 receptor (Homo sapiens, UniProt P21554); assay: biochemical; assay type: binding; design: purchased Merck HTS019M; host or cells: Chem-1 cells
Description: Compounds selected for the in vitro binding assay from the first iteration of VS were purchased via MolPort, SIA, Riga, Latvia and Biopurify Phytochemicals Ltd., Chengdu, China. Compounds from the second iteration were purchased from MolPort, SIA, Riga, Latvia and Chemspace, SIA, Riga, Latvia (Supporting Information S3). […] Membranes from cells overexpressing the human CB1 receptor (ChemiScreen CB1 Cannabinoid Receptor Membrane Preparation, cat. no. HTS019M) as well as MgCl2, CaCl2, Trizma Base, NaCl, polyethylenimine (PEI) and dimethyl sulfoxide (DMSO) were purchased from Merck (USA). Bovine serum albumin (BSA) was obtained from Pol-Aura (Poland).
Compounds were dissolved in 50% DMSO and added to the reaction mixture at 10 concentrations equally spaced on a log scale (10^–10 to 10^–4.5 M). The final DMSO concentration was 5%. […] The reaction mixture (500 μL) was incubated for 1.5 h at 30°C . Before harvesting, Whatman GF/B Filter Paper (Brandel, USA) was presoaked with 0.33% PEI buffer for 30 min. and then washed with 2 ml of 50 mM Tris-HCl buffer (pH = 7.4) and 0.5% BSA to minimize non-specific binding. The reaction was terminated by depositing the samples onto GF/B filter paper with the Brandel M-24 Cell Harvester (Brandel, USA). Samples were then rapidly washed 3 times with 2 ml of ice-cold wash buffer (50 mM Tris-HCl pH 7.4, 500 mM NaCl) to separate the bound radioligand from free. Filters were then air-dried for 1 h at 60°C . After drying, filter discs were placed on a flexible 24-well plate and 500 μL of EcoScint-20 scintillant was added to each well. Plates were counted (2 min. per well) in a Trilux MicroBeta^2 2450 scintillation counter (Perkin Elmer, USA). Data were analyzed with GraphPad Prism 5.0 software.[89]

[3] = CB1 agonists, Table S8, ref SI (1)-(19)
[4] = [3H]CP-55,940 displacement, membranes of Chem-1 cells expressing human CB1
[5] = CB1 antagonists/inverse agonists, Table S9, ref SI (20)-(38)
[6] = [3H]CP-55,940 displacement, membranes of Chem-1 cells expressing human CB1, read-out: pKi ± SEM (converted)

human CB1 receptor, sequence (P21554 whole entry): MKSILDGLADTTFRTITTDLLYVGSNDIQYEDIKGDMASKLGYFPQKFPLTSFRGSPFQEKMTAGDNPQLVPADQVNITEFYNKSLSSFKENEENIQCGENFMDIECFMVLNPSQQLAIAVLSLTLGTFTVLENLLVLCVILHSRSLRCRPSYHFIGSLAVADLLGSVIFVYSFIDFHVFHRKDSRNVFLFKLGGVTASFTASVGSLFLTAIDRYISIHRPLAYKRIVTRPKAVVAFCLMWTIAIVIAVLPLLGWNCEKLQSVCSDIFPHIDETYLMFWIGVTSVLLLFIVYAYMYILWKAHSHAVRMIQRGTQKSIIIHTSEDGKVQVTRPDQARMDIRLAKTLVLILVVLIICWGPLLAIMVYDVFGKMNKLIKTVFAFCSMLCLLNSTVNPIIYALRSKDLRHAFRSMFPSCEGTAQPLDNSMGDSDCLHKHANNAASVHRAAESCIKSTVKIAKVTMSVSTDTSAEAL

CC1=CC[C@@H]2[C@@H](C1)c1c(O)cc(C34CC5CC(CC(C5)C3)C4)cc1OC2(C)C [AM-411]
Ki [1, 3]: 6.8 nM

CCCCCn1cc(C(=O)c2cccc3ccccc23)cc1-c1ccccc1F [JWH-307]
Ki [1, 3]: 7.7 nM

COc1ccc(-c2nc(C(=O)NCCc3ccc(Cl)cc3Cl)cc3c2[nH]c2ccccc23)cc1OC [Compound 35]
pKi ± SEM [2, 4]: 4.35 ± 0.09 | Ki ([2]; read-out: Ki (μM, 95% CI)): 44 µM

CS(=O)(=O)N(c1cc(F)cc(F)c1)C1CN(C(c2ccc(Cl)cc2)c2ccc(Cl)cc2)C1 [Drinabant]
Ki [1, 5]: 11 nM

OCC1=C[C@@H](O)[C@]2(O[C@@H]3O[C@H](CO)[C@@H](O)[C@H](O)[C@H]3O[C@@H]3O[C@H](CO)[C@@H](O)[C@H](O)[C@H]3O)C=CO[C@@H](O[C@@H]3O[C@H](CO)[C@@H](O)[C@H](O)[C@H]3O)[C@H]12 [Compound 19, Rehmannioside D]
Ki (μM, 95% CI) [2]: no activity | pKi ± SEM [2, 4]: no activity

C/C(N)=N\C(=N/S(=O)(=O)c1ccc(C(F)(F)F)cc1)N1C[C@H](c2ccccc2)C(c2ccc(Cl)cc2)=N1 [MRI-1867]
Ki [1, 5]: 2.3 nM

O=C(/C=C/c1ccc(O)cc1)OC[C@H]1O[C@@H](Oc2c(-c3ccc(O)cc3)oc3cc(O)cc(O)c3c2=O)[C@H](O)[C@@H](O)[C@@H]1O [Compound 22, Tiliroside]
Ki ([2]; Ki (μM, 95% CI)): 47.2 µM

CC1=CC[C@@H]2[C@@H](C1)c1c(O)cc(C(C)(C)CCCCCCBr)cc1OC2(C)C [AM-11542]
Ki [1, 3]: 0.11 nM

CCCCCCC(C)(C)c1cc(O)c2c(c1)OC(C)(C)[C@@H]1CC=C(CO)C[C@@H]21 [HU-210]
Ki [1, 3]: 0.06 nM

CCCCCn1cc(C(=O)C2C(C)(C)C2(C)C)c2ccccc21 [UR-144]
Ki [1, 3]: 29 nM

CC(C)(CCCCCCN=C=S)c1cc(O)c2c(c1)OC(C)(C)[C@@H]1CC[C@@H](CO)C[C@@H]21 [AM-841]
Ki [1, 3]: 1.14 nM

COc1ccc(-c2cc(=O)c3c(O)cc4c(c3o2)C(c2cccc(Cl)c2F)CC(=O)O4)cc1O (racemic) [Compound 31]
Ki (μM, 95% CI) [2]: no activity | pKi ± SEM [2, 4]: no activity

Cc1c(C(=O)NN2CCOCC2)nn(-c2ccc(Cl)cc2Cl)c1-c1ccc(I)cc1 [AM-281]
Ki [1, 5]: 12 nM

COc1cc2c(cc1OC)[C@@H](Cc1ccc(O)c(Oc3cc4c(cc3OC)CCN(C)[C@@H]4Cc3ccc(O)cc3)c1)N(C)CC2 [Compound 16, Liensinine]
Ki (μM, 95% CI) [2]: no activity | pKi ± SEM [2, 4]: no activity

CC(C)COc1ccc(CNC(=O)N(Cc2ccc(F)cc2)C2CCN(C)CC2)cc1 [Compound 6, Pimavanserin]
Ki [2, 6]: 33.9 µM

Cc1nc2c(-c3ccc(Cl)cc3)n(-c3ccccc3Cl)nc2c(=O)n1CC(F)(F)F [CHEMBL201602]
Ki [1, 5]: 0.6 nM

CCc1c(C(=O)NN2CCCCC2)nn(-c2ccc(Cl)cc2Cl)c1-c1ccc(Br)cc1 [Surinabant]
Ki [1, 5]: 3.5 nM

COc1ccc(-n2c(=O)c3ccc(C(=O)NCCc4ccccc4)cc3n(Cc3ccccc3F)c2=O)cc1 [Compound 40]
Ki (μM, 95% CI) [2]: no activity | pKi ± SEM [2, 4]: no activity

Cc1ccc(COc2ccc3c(C)c(CC(=O)N4CCC5(O)CCCCC5C4)c(=O)oc3c2C)cc1 (racemic) [Compound 27]
Ki (μM, 95% CI) [2]: insoluble | pKi ± SEM [2, 4]: insoluble

Cc1c(O[C@H](C)C(=O)NC[C@@H](O)c2ccccc2)ccc2c(-c3ccccc3)cc(=O)oc12 (racemic) [Compound 25]
pKi ± SEM [2, 4]: 4.86 ± 0.09 | Ki ([2]; read-out: Ki (μM, 95% CI)): 13.9 µM

O=c1c(O)cc([C@H]2Oc3cc(O)cc(O)c3C[C@H]2O)cc2c([C@H]3Oc4cc(O)cc(O)c4C[C@H]3O)cc(O)c(O)c12 [Compound 21, Theaflavin]
Ki (μM, 95% CI) [2]: no activity | pKi ± SEM [2, 4]: no activity

COc1ccc(-c2nc3ccc(C(=O)NCc4ccc(Cl)cc4)cc3nc2-c2ccc(OC)cc2)cc1 [Compound 37]
Ki (μM, 95% CI) [2]: no activity | pKi ± SEM [2, 4]: no activity

O=C(O[C@@H]1O[C@@H]2COC(=O)c3cc(O)c(O)c(O)c3-c3c(cc(O)c(O)c3O)C(=O)O[C@H]([C@H]1O)[C@@H]2O)c1cc(O)c(O)c(O)c1 [Compound 13, Corilagin]
Ki ([2]; Ki (μM, 95% CI)): 48 µM

CC(C)=CCC/C(C)=C/Cc1cc(C2CC(=O)c3c(O)cc(O)cc3O2)c(O)cc1O (stereo not shown) [Compound 24, Kuwanon E]
Ki [2, 6]: 30.9 µM

COc1cc(C2Oc3cc([C@H]4Oc5cc(O)cc(O)c5C(=O)[C@@H]4O)ccc3OC2CO)ccc1O (stereo partly shown) [Compound 20, Silybin]
Ki ([2]; Ki (μM, 95% CI)): 165 µM

C[C@@]12C[C@@]3(O)O[C@@H](O1)[C@]1(COC(=O)c4ccccc4)[C@H]3C[C@@]12O[C@@H]1O[C@H](COC(=O)c2ccccc2)[C@@H](O)[C@H](O)[C@H]1O [Compound 12, Benzoylpaeoniflorin]
Ki ([2]; Ki (μM, 95% CI)): 179 µM

CC(C)(O)[C@@H]1CC[C@](C)([C@H]2[C@@H](O)C[C@@]3(C)[C@@H]4C[C@H](O)[C@H]5C(C)(C)[C@@H](O)CC[C@@]56C[C@@]46CC[C@]23C)O1 [Compound 14, Cyclogalegenol]
pKi ± SEM [2, 4]: 3.76 ± 0.20 | Ki ([2]; read-out: Ki (μM, 95% CI)): 175 µM

O=C1[C@@H]2[C@H]3CC[C@H](C3)[C@@H]2C(=O)N1C[C@@H]1CCCC[C@H]1CN1CCN(c2nsc3ccccc23)CC1 [Compound 4, Lurasidone]
Ki ([2]; Ki (μM, 95% CI)): 39.8 µM

O=C(NC[C@H]1CN(c2ccc(N3CCOCC3=O)cc2)C(=O)O1)c1ccc(Cl)s1 [Compound 7, Rivaroxaban]
Ki (μM, 95% CI) [2]: no activity | pKi ± SEM [2, 4]: no activity

COc1cc2c(=O)c3c(O)c([C@@H]4O[C@H](CO[C@@H]5OC[C@](O)(CO)[C@H]5O)[C@@H](O)[C@H](O)[C@H]4O)c(O)cc3oc2cc1O [Compound 18, Polygalaxanthone III]
Ki (μM, 95% CI) [2]: no activity | pKi ± SEM [2, 4]: no activity

CCCS(=O)(=O)Nc1ccc(F)c(C(=O)c2c[nH]c3ncc(-c4ccc(Cl)cc4)cc23)c1F [Compound 29, Vemurafenib]
Ki (μM, 95% CI) [2]: no activity | pKi ± SEM [2, 4]: no activity

O=c1[nH]c2ccccc2n1CCN1CCN(c2cccc(C(F)(F)F)c2)CC1 [Compound 2, Flibanserin]
Ki ([2]; Ki (μM, 95% CI)): 109 µM

O=C(NCCc1ccc(F)cc1)c1cc2c([nH]c3ccccc32)c(-c2ccc(F)cc2)n1 [Compound 23]
Ki (μM, 95% CI) [2]: no activity | pKi ± SEM [2, 4]: no activity

COc1ccccc1Oc1c(NS(=O)(=O)c2ccc(C(C)(C)C)cc2)nc(-c2ncccn2)nc1OCCO [Compound 1, Bosentan]
Ki ([2]; Ki (μM, 95% CI)): 259 µM

Cc1nc2c([nH]1)-c1ccccc1N(C(=O)c1ccc(NC(=O)c3ccccc3-c3ccccc3)cc1)CC2 [Compound 45, Conivaptan]
Ki (μM, 95% CI) [2]: no activity | pKi ± SEM [2, 4]: no activity

O=C1NCCN1CCN1CCC(c2cn(-c3ccc(F)cc3)c3ccc(Cl)cc23)CC1 [Compound 44, Sertindole]
Ki [2, 6]: 41.7 µM

COc1cc2c(cc1OC)CN(C(=O)NC(CCSC)C(=O)NC1CCCc3ccccc31)CC2 (racemic) [Compound 39]
pKi ± SEM [2, 4]: 4.40 ± 0.07 | Ki ([2]; read-out: Ki (μM, 95% CI)): 40 µM

CCCCNC(=O)[C@@H]1CN(C(=O)c2cccc(OC)c2)C[C@H]1c1ccc(OC)cc1OC (racemic) [Compound 42]
Ki (μM, 95% CI) [2]: no activity | pKi ± SEM [2, 4]: no activity

COC(=O)C1=C(C)NC(C)=C(C(=O)OCCN(C)Cc2ccccc2)C1c1cccc([N+](=O)[O-])c1 (stereo not shown) [Compound 5, Nicardipine]
Ki (μM, 95% CI) [2]: no activity | pKi ± SEM [2, 4]: no activity

Cc1ccc(S(=O)(=O)NC(Cc2c[nH]c3ccccc23)C(=O)Oc2ccc3c4c(c(=O)oc3c2)CCC4)cc1 (racemic) [Compound 36]
pKi ± SEM [2, 4]: 4.39 ± 0.09 | Ki ([2]; read-out: Ki (μM, 95% CI)): 41 µM

CC(C)=CCC[C@](C)(O)[C@H]1CC[C@]2(C)[C@@H]1[C@H](O)C[C@@H]1[C@@]3(C)CC[C@H](O)C(C)(C)[C@@H]3[C@@H](O)C[C@]12C [Compound 10, (20S)-Protopanaxatriol]
Ki (μM, 95% CI) [2]: no activity | pKi ± SEM [2, 4]: no activity

CCCSc1nc(N[C@@H]2C[C@H]2c2ccc(F)c(F)c2)c2nnn([C@@H]3C[C@H](OCCO)[C@@H](O)[C@H]3O)c2n1 [Compound 8, Ticagrelor]
Ki [2, 6]: 36.3 µM

COc1cc(C(C)=O)ccc1OCCCN1CCC(c2noc3cc(F)ccc23)CC1 [Compound 3, Iloperidone]
Ki ([2]; Ki (μM, 95% CI)): 87.9 µM | Ki [2, 6]: 89.1 µM

COc1ccc(CCNC(=O)c2[nH]c3ccccc3c2NC(=O)c2cccc(C)c2)cc1OC [Compound 28]
Ki (μM, 95% CI) [2]: no activity | pKi ± SEM [2, 4]: no activity

O=c1cc(-c2ccc(O)cc2)oc2c(C3O[C@H](CO)[C@@H](O[C@@H]4O[C@H](CO)[C@@H](O)[C@H](O)[C@H]4O)[C@H](O)[C@H]3O)c(O)cc(O)c12 (stereo partly shown) [Compound 11, 4”-O-Glucosylvitexin]
Ki (μM, 95% CI) [2]: no activity | pKi ± SEM [2, 4]: no activity

CC(C)=CCCC1(C)C=Cc2c(ccc(C3CC(=O)c4c(O)cc(O)cc4O3)c2O)O1 (stereo not shown) [Compound 26, Sanggenon N]
pKi ± SEM [2, 4]: 4.71 ± 0.05 | Ki ([2]; read-out: Ki (μM, 95% CI)): 19 µM
